Assay results taken from patent publication US10941157B2, “Pesticidal compositions and uses thereof” (Gilead Apollo, LLC, priority 2015, dated 2021).
≈ marks a conversion by molar mass, not a printed value. Like-named read-outs stand apart in the source and are kept apart here.

Columns and labels:
Type in all cases: cell-based
[1] = system: Phytophthora capsici (Pc); assay: In vitro pathogen growth inhibition assay, Pc; conditions: 48 h
Method in brief: (§1)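 Spores of Dm, Fv and Pc were diluted in 17% V8 liquid medium; Rs used 1.5 mm mycelial plugs in ¼ PDB. Compounds from 2.5 mg/ml DMSO stocks were combined with inoculum, growth was read by OD600 at 24 and 48 h with blank subtraction, and the reported value is the concentration giving ≥90% inhibition.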

[2] = system: Fusarium virguliforme (Fv); assay: In vitro pathogen growth inhibition assay, Fv
Method in brief: as §1

[3] = system: Collectotrichum graminicola (Cg); assay: In vitro pathogen growth inhibition assay, Cg; conditions: 48 h
Method in brief: (§2)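 Value reported is the compound concentration reaching ≥90% growth inhibition, from OD readings at 24 and 48 h after blank subtraction, confirmed visually. Inoculum was spores diluted in 17% V8 medium, except Rs, using 1.5 mm mycelial plugs in ¼ PDB; actual compound concentration corrected via OD600.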

[4] = system: Fusarium moniliforme (Fm); assay: In vitro pathogen growth inhibition assay, Fm; conditions: Fusarium verticillioides
Method in brief: as §2

Rhizoctonia solani (Rs) = assay: In vitro pathogen growth inhibition assay, Rs (mycelial plugs); conditions: Rhizoctonia solani, 48 h
Method in brief: as §1

Diplodia maydis (Dm) = assay: In vitro pathogen growth inhibition assay, Dm; conditions: Stenocarpella maydis, 48 h
Method in brief: as §1

Septoria tritici (St) = assay: In vitro pathogen growth inhibition assay, St; conditions: Zymoseptoria tritici, 48 h
Method in brief: as §2

Botrtyis cinerea (Bc) = assay: In vitro pathogen growth inhibition assay, Bc; conditions: 48 h
Method in brief: as §2

[5] = concentration sufficient to ≥90% inhibition of growth, 48 hours vs 2% DMSO control, read-out: Compound Concentration (ppm) for ≥90% inhibition, Pc
[6] = concentration sufficient to ≥90% inhibition of growth, 48 hours vs 2% DMSO control, read-out: Compound Concentration (ppm) for ≥90% inhibition, Fv
[7] = concentration sufficient to ≥90% inhibition of growth, 48 hours vs 2% DMSO control, read-out: Compound Concentration (ppm) for ≥90% inhibition, Cg
[8] = concentration sufficient to ≥90% inhibition of growth, 48 hours vs 2% DMSO control, read-out: Compound Concentration (ppm) for ≥90% inhibition, Fm
[9] = concentration sufficient to ≥90% inhibition of growth, 48 hours vs 2% DMSO control, read-out: Compound Concentration (ppm) for ≥90% inhibition, Rs
[10] = concentration sufficient to ≥90% inhibition of growth, 48 hours vs 2% DMSO control, read-out: Compound Concentration (ppm) for ≥90% inhibition, Dm
[11] = concentration sufficient to ≥90% inhibition of growth, 48 hours vs 2% DMSO control, read-out: Compound Concentration (ppm) for ≥90% inhibition, St
[12] = concentration sufficient to ≥90% inhibition of growth, 48 hours vs 2% DMSO control, read-out: Compound Concentration (ppm) for ≥90% inhibition, Bc
[13] = ≥90% growth inhibition, 48 hours, vs 2% DMSO control, read-out: Compound Concentration (ppm) sufficient for ≥90% inhibition of Pc
[14] = ≥90% growth inhibition, 48 hours, vs 2% DMSO control, read-out: Compound Concentration (ppm) sufficient for ≥90% inhibition of Fv
[15] = ≥90% growth inhibition, 48 hours, vs 2% DMSO control, read-out: Compound Concentration (ppm) sufficient for ≥90% inhibition of Cg
[16] = ≥90% growth inhibition, 48 hours, vs 2% DMSO control, read-out: Compound Concentration (ppm) sufficient for ≥90% inhibition of Fm
[17] = ≥90% growth inhibition, mycelial plugs, 48 hours, vs 2% DMSO control, read-out: Compound Concentration (ppm) sufficient for ≥90% inhibition of Rs
[18] = ≥90% growth inhibition, 48 hours, vs 2% DMSO control, read-out: Compound Concentration (ppm) sufficient for ≥90% inhibition of Dm
[19] = ≥90% growth inhibition, 48 hours, vs 2% DMSO control, read-out: Compound Concentration (ppm) sufficient for ≥90% inhibition of St
[20] = ≥90% growth inhibition, 48 hours, vs 2% DMSO control, read-out: Compound Concentration (ppm) sufficient for ≥90% inhibition of Bc
[21] = ≥90% inhibition, 48 hours vs 2% DMSO control, read-out: Compound Concentration (ppm) sufficient for ≥90% inhibition of growth, Pc
[22] = ≥90% inhibition, 48 hours vs 2% DMSO control, read-out: Compound Concentration (ppm) sufficient for ≥90% inhibition of growth, Fv
[23] = ≥90% inhibition, 48 hours vs 2% DMSO control, read-out: Compound Concentration (ppm) sufficient for ≥90% inhibition of growth, Cg
[24] = ≥90% inhibition, 48 hours vs 2% DMSO control, read-out: Compound Concentration (ppm) sufficient for ≥90% inhibition of growth, Fm
[25] = ≥90% inhibition, mycelial plugs, 48 hours vs 2% DMSO control, read-out: Compound Concentration (ppm) sufficient for ≥90% inhibition of growth, Rs
[26] = ≥90% inhibition, 48 hours vs 2% DMSO control, read-out: Compound Concentration (ppm) sufficient for ≥90% inhibition of growth, Dm
[27] = ≥90% inhibition, 48 hours vs 2% DMSO control, read-out: Compound Concentration (ppm) sufficient for ≥90% inhibition of growth, St
[28] = ≥90% inhibition, 48 hours vs 2% DMSO control, read-out: Compound Concentration (ppm) sufficient for ≥90% inhibition of growth, Bc

SMILES | IC90 [1, 5] | IC90 [2, 6] | IC90 [3, 7] | IC90 [4, 8] | IC90 (Rhizoctonia solani (Rs); [9]) | IC90 (Diplodia maydis (Dm); [10]) | IC90 (Septoria tritici (St); [11]) | IC90 (Botrtyis cinerea (Bc); [12]) | IC90 [1, 13] | IC90 [2, 14] | IC90 [3, 15] | IC90 [4, 16] | IC90 [1, 21] | IC90 [2, 22] | IC90 [3, 23] | IC90 [4, 24] | IC90 (Rhizoctonia solani (Rs); [25]) | IC90 (Diplodia maydis (Dm); [26]) | IC90 (Septoria tritici (St); [27]) | IC90 (Botrtyis cinerea (Bc); [28]) | also measured
COc1ccc(F)cc1[C@H](Cn1c(=O)n(C(C)(C)C(=O)NC(C)C)c(=O)c2c(C)c(-n3cncn3)sc21)OCCC#N [Compound I-317] | > 50 µg/mL | ≥ 10 µg/mL | 50 µg/mL (≈ 83.7 µM) | 10 µg/mL (≈ 16.7 µM) | > 50 µg/mL | > 50 µg/mL | > 50 µg/mL | 50 µg/mL (≈ 83.7 µM) |  |  |  |  |  |  |  |  |  |  |  |  | 
CCOC(=O)c1sc2c(c1C)c(=O)n([C@@H](C)C(N)=O)c(=O)n2C[C@H](OCCC#N)c1cc(F)ccc1OC [Compound I-227] | > 50 µg/mL | > 50 µg/mL | > 50 µg/mL | 10 µg/mL (≈ 18.3 µM) | 0.4 µg/mL (≈ 0.732 µM) | > 50 µg/mL | > 50 µg/mL | 50 µg/mL (≈ 91.5 µM) |  |  |  |  |  |  |  |  |  |  |  |  | 
CCc1ccc(F)cc1[C@H](Cn1c(=O)n(C(C)(C)C(=O)NC(C)C)c(=O)c2c(C)c(-n3nccn3)sc21)O[C@H]1C[C@@H](O)C1 [Compound I-280] |  |  |  |  |  |  |  |  | 50 µg/mL (≈ 81.6 µM) | 0.4 µg/mL (≈ 0.653 µM) | 2 µg/mL (≈ 3.26 µM) | 0.08 µg/mL (≈ 0.131 µM) |  |  |  |  |  |  |  |  | IC90 (Rhizoctonia solani (Rs); [17]): 0.08 µg/mL (≈ 0.131 µM); IC90 (Diplodia maydis (Dm); [18]): 2 µg/mL (≈ 3.26 µM); IC90 (Septoria tritici (St); [19]): ≥ 50 µg/mL; IC90 (Botrtyis cinerea (Bc); [20]): 2 µg/mL (≈ 3.26 µM)
COc1ccc(F)cc1[C@H](Cn1c(=O)n(C(C)(C)C(=O)NC(C)C)c(=O)c2c(C)c(-n3cccn3)sc21)OC[C@H](C)O [Compound I-136] |  |  |  |  |  |  |  |  |  |  |  |  | > 50 µg/mL | 2 µg/mL (≈ 3.32 µM) | 10 µg/mL (≈ 16.6 µM) | 0.4 µg/mL (≈ 0.665 µM) | ≥ 2 µg/mL | ≥ 10 µg/mL | > 50 µg/mL | 2 µg/mL (≈ 3.32 µM) | 
CCNC(=O)[C@H](C)n1c(=O)c2c(C)c(-n3nccn3)sc2n(C[C@H](OCCC#N)c2cc(F)ccc2OC)c1=O [Compound I-290] |  |  |  |  |  |  |  |  | > 50 µg/mL | 10 µg/mL (≈ 17.6 µM) | 10 µg/mL (≈ 17.6 µM) | 0.4 µg/mL (≈ 0.702 µM) |  |  |  |  |  |  |  |  | IC90 (Rhizoctonia solani (Rs); [17]): 2 µg/mL (≈ 3.51 µM); IC90 (Diplodia maydis (Dm); [18]): ≥ 10 µg/mL; IC90 (Septoria tritici (St); [19]): > 50 µg/mL; IC90 (Botrtyis cinerea (Bc); [20]): 2 µg/mL (≈ 3.51 µM)
COc1ccc(F)cc1[C@H](Cn1c(=O)n([C@@H](C)C(=O)N2CCCC2)c(=O)c2c(C)c(-n3cccn3)sc21)OCCC#N [Compound I-313] |  |  |  |  |  |  |  |  | > 50 µg/mL | 50 µg/mL (≈ 84.1 µM) | 50 µg/mL (≈ 84.1 µM) | 2 µg/mL (≈ 3.36 µM) |  |  |  |  |  |  |  |  | IC90 (Rhizoctonia solani (Rs); [17]): 50 µg/mL (≈ 84.1 µM); IC90 (Diplodia maydis (Dm); [18]): > 50 µg/mL; IC90 (Septoria tritici (St); [19]): > 50 µg/mL; IC90 (Botrtyis cinerea (Bc); [20]): > 50 µg/mL
COc1ccccc1[C@H](Cn1c(=O)n(C(C)(C)C(=O)N2CCCCC2)c(=O)c2c(C)c(-n3cccn3)sc21)OC1CCOCC1 [Compound I-117] |  |  |  |  |  |  |  |  |  |  |  |  | > 50 µg/mL | 10 µg/mL (≈ 15.7 µM) | 10 µg/mL (≈ 15.7 µM) | 0.4 µg/mL (≈ 0.629 µM) | 10 µg/mL (≈ 15.7 µM) | 10 µg/mL (≈ 15.7 µM) | > 50 µg/mL | 2 µg/mL (≈ 3.15 µM) | 
COc1ccccc1[C@H](Cn1c(=O)n(C(C)(C)C(=O)NC(C)C)c(=O)c2c(C)c(-n3nccn3)sc21)OC1CCOCC1 [Compound I-029] |  |  |  |  |  |  |  |  |  |  |  |  | 50 µg/mL (≈ 81.9 µM) | 0.4 µg/mL (≈ 0.655 µM) | ≥ 2 µg/mL | 0.08 µg/mL (≈ 0.131 µM) | 0.4 µg/mL (≈ 0.655 µM) | ≥ 2 µg/mL | > 10 µg/mL | 0.4 µg/mL (≈ 0.655 µM) | 
COc1ccc(F)cc1[C@H](Cn1c(=O)n(C(C)(C)C(=O)NC(C)C)c(=O)c2c(C)c(-n3nccn3)sc21)OCCN(C)C [Compound I-173] | > 50 µg/mL | > 50 µg/mL | ≥ 50 µg/mL | 50 µg/mL (≈ 81.2 µM) | 10 µg/mL (≈ 16.2 µM) | > 50 µg/mL | > 50 µg/mL | 50 µg/mL (≈ 81.2 µM) |  |  |  |  |  |  |  |  |  |  |  |  | 
COc1ccccc1[C@H](Cn1c(=O)n(C(C)(C)C(=O)N2CC(O)C2)c(=O)c2c(C)c(-n3nccn3)sc21)OC1CCOCC1 [Compound I-156] |  |  |  |  |  |  |  |  |  |  |  |  | > 50 µg/mL | 10 µg/mL (≈ 16 µM) | 50 µg/mL (≈ 80 µM) | 2 µg/mL (≈ 3.2 µM) | 10 µg/mL (≈ 16 µM) | 50 µg/mL (≈ 80 µM) | > 50 µg/mL | 10 µg/mL (≈ 16 µM) | 
